Assay results published in patent publication US20060128645A1, “Inhibition of proliferation and infiltration of brain tumor cells caused by expression of ampa-type glutamate receptor subunit” (priority 2002, published 2006).

Key:
[1] = tested on: Ca^2+-permeable AMPARs in CGNH-89 cells; experiment: AMPA-induced [Ca2+]i changes (fura-2 AM) in CGNH-89 cells after adenoviral gene transfer; format: cell-based, human; conditions: 200 μM AMPA + 100 μM CTZ
Experimental: In FIGS. 3p˜x, the present inventors confirmed changes in Ca^2+ permeability induced by adenoviral-mediated introduction of GluR2 (R) or GluR2 (Q) in CGNH-89 cells. […] The same treatment had no effect on [Ca^2+]i in cells expressing GluR2 (FIGS. 3s, t and u) in 4 culture dishes, whereas it caused a marked increase in [Ca^2+]i from 77±21 to 1185±240 nM (n=40) in cells expressing GluR2 (Q) in 2 culture dishes (FIGS. 3v, w and x).
(2) AxCANCre and AxCAGFP: recombinant adenoviruses for expression of Cre recombinase and EGFP (Clontech), respectively. Cells were infected at a multiplicity of infection (MOI) of 5 with each of the recombinant adenoviruses 2˜5 days before experiments.
(§1) Cells were loaded with fura 2-AM (Dojin) at room temperature for 40 min. Fluorescence images were obtained at an excitation wavelength of 340 and 380 nm using the Argus/HiSCA system (Hamamatsu Photonics). The 340/380 nm fluorescence ratio was converted to [Ca^2+]i as described previously (Cell, 88, 49-55, 1997).

CGNH-89 cells [2] = experiment: ATP-induced [Ca2+]i increase in CGNH-89 cells; format: cell-based, human; conditions: 25 μM ATP; control cells, n=50
Experimental: The present inventors examined whether CGNH-89 cells expressing GluR2 (R) could increase [Ca^2+]i to a similar extent as control cells in response to ATP, which is known to mediate Ca^2+ signaling in glial cells (J. Neurosci., 18, 8794-8804, 1998).
as §1

[3] = molecular target: T1, Ca^2+-permeable AMPARs in glioblastoma cells in primary culture (Homo sapiens, UniProt P42261); experiment: AMPA-induced [Ca2+]i changes (fura-2 AM) in primary cultured glioblastoma cells; format: cell-based
T1 construct: To examine functional expression of Ca^2+-permeable AMPARs in glioblastoma cells in primary culture; endogenous in cells; host or cells: primary (explant) cultures of glioblastoma multiforme surgical samples
Experimental: as §1

CGNH-89 cells [4] = experiment: Cell morphology of CGNH-89 glioblastoma cells; format: cell-based, human
CGNH-89 cells [5] = experiment: TUNEL apoptotic index in CGNH-89 cells; format: cell-based, human; conditions: 10 μM YM872, 2 days, n=4
Description: The present inventors next estimated the apoptotic index in CGNH-89 cells expressing GluR2 (R) using the terminal deoxynucleotide transferase (TdT)-mediated dUTP nick end labeling (TUNEL) method (Science, 267, 1445-1449, 1995), and compared this value with that in cells infected with only AxCALNLGluR2 (control). The apoptotic index was defined as the number of TUNEL-positive cells divided by the total number of propidium iodine (PI)-positive nuclei per microscopic field. To obtain the mean value in each culture dish, 10 to 15 randomly chosen fields were sampled.
(§2) For TUNEL and cell proliferation assays, cells were plated at a density of 2×10^4/well in Lab-Tek 4-well glass slides filled with the standard culture medium. At 6 hr. after plating, the medium was replaced with glutamate-free medium and cells were infected with the adenoviruses. At 48 hr. after plating, glutamate (100 μM) was added to the medium and cells were fixed at 5 days postinfection. TUNEL assay was performed with an In Situ Cell Death Detection kit (MBL). Cell proliferation assay was performed with anti-Ki-67 monoclonal antibody (Dako) staining indices. Migration assay was performed in a transwell chamber (8 μm pore size) (Corning Corstar Corp.).

CGNH-89 cells [6] = experiment: Ki-67 staining index (proliferation activity) in CGNH-89 cells; format: cell-based, human; conditions: 10 μM YM872, 2 days, n=4
Experimental: There were no significant changes in these 2 indices between cells expressing GluR2 (Q) and overexpressing GluR1.
as §2, with “At 48 hr. after plating, glutamate (100 μM) was added to the medium and cells were fixed at 5 days postinfection.” left out

[7] = tested on: CGNH-NM, MRCH-92 and U87 MG; experiment: Other 3 cell lines expressing Ca2+-permeable AMPARs: morphology, apoptotic index, Ki-67 index, migration; format: cell-based, human
[8] = tested on: tumor produced by grafting CGNH-89 cells into the subcutaneous tissue; experiment: Subcutaneous CGNH-89 tumor growth in nude mice; format: in vivo
Description: To further estimate quantitatively whether manipulation of Ca^2+-permeable AMPARs alters tumor growth in vivo, the present inventors examined effects of GluR2 and GluR2 (Q) expression and/or application of the AMPAR antagonist YM872 on the growth of tumor produced by grafting CGNH-89 cells into the subcutaneous tissue of nude mice (FIG. 6)-(FIGS. 6a and b).
Proliferation of tumor cells expressing GluR2 (Q) was inhibited by application of YM872 (FIGS. 6g, h and i).
In addition, the effect of adenoviral-mediated expression of GluR2 (R) and GluR2 (Q) on tumor growth was evaluated quantitatively in subcutaneous tumors with or without application of YM872, an antagonist for AMPA-type glutamate receptors. Cell suspensions (1×10^7/100 μl) were injected subcutaneously in the flank of nude mice 5˜6 weeks old (body weight, 18˜20 g). Adenoviruses ([…], diluted in a total of 100 μl of PBS) were administered intratumorally once 5 days after tumor inoculation with a 27-gauge needle. AxCALNLGluR2 without AxCANCre was administered for control.
YM872, a kind gift from Yamanouchi Pharmaceutical Company, was dissolved in PBS. […] In this series of experiments, 100 mg/kg YM872 was used. PBS (100 μl) was administered intraperitoneally for control. Tumor volume was calculated according to the formula (length×width^2 )/2. At the end of each experiment, tumor tissues were subjected to histological analysis.

tumor cells = experiment: Tumor cells cultured in glutamate-free medium, glutamate add-back; format: cell-based, human; conditions: addition of 100 ˜M glutamate after 4˜5 days in glutamate-free medium with 10% dialyzed FCS
Experimental: The endogenous agonist for AMPARs is glutamate. The culture medium in this experiment was supplemented with fetal calf serum (FCS) and contained up to 100 μM glutamate. The presence of glutamate was essential for maintenance of fusiform morphology as well as proliferation of the tumor cells. When the cells were cultured in glutamate-free medium supplemented with 10% dialyzed FCS for 4˜5 days, they became polygonal in shape and the number of apoptotic cells increased. These changes were restored by addition of 100 ˜M glutamate. An obvious question is whether a sufficient concentration of glutamate to activate Ca^2+-permeable AMPARs is actually supplied to proliferating and migrating tumor cells in the brain. It has been shown that implanted glioma cells continue to secrete glutamate, resulting in a detectable elevation of extracellular glutamate, and that gliomas with high glutamate release have a distinct growth advantage (Nature Med., 7, 1010-1015, 2001).

[9] = other 3 cell lines (CGNH-NM, MRCH-92, U87 MG)
[10] = 22 days after tumor inoculation

T1 sequence (P42261 19-906): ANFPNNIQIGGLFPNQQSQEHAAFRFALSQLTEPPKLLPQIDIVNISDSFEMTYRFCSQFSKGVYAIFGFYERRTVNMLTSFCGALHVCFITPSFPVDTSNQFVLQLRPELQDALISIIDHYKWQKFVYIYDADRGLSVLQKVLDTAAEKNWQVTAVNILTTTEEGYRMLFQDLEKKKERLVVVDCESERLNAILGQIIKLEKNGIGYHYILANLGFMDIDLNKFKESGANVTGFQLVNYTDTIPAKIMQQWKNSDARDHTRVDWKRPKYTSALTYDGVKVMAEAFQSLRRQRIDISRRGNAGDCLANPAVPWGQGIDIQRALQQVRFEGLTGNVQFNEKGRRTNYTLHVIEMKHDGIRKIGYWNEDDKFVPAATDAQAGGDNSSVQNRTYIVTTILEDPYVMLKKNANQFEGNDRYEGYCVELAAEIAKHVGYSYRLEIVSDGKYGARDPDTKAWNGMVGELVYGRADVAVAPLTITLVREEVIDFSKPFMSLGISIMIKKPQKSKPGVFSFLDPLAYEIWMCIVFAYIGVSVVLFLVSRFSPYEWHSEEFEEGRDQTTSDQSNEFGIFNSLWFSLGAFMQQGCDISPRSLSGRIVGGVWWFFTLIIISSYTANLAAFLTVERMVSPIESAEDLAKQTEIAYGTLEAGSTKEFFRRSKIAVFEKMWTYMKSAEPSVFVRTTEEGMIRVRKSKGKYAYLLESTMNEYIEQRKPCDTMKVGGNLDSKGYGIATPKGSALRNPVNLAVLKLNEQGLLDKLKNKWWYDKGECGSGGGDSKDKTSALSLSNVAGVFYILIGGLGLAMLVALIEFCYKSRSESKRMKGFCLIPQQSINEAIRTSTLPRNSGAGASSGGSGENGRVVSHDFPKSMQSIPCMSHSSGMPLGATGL

Cc1onc(O)c1CC(N)C(=O)O (stereo not drawn) [AMPA, α-amino-3-hydroxy-5-methyl-4-isoxazole propionic acid]
control cells in which [Ca^2+]i increased ([1]; 10 culture dishes): 52±14% | [Ca^2+]i during application of AMPA together with CTZ ([1]; control CGNH-89 cells, n=350): 275 ± 50 nM

Nc1ncnc2c1ncn2[C@@H]1O[C@H](COP(=O)(O)OP(=O)(O)OP(=O)(O)O)[C@@H](O)[C@H]1O [ATP]
[Ca^2+]i after application of ATP (CGNH-89 cells [2]): 1574 ± 161 nM

[K+] [K^+]
effect on [Ca^2+]i ([3]; 100 mM K^+): did not increase

NS(=O)(=O)c1cccc2c1c([N+](=O)[O-])cc1nc(O)c(O)nc12 [NBQX, 2,3-dihydroxy-6-nitro-7-sulfamoyl-benzo(F)-quinoxaline]
change in cell morphology (CGNH-89 cells [4]; 20 μM NBQX for 2 days): retraction of cytoplasmic processes, enlarged and flattened somata

O.O=C(O)Cn1c(=O)c(=O)[nH]c2cc([N+](=O)[O-])c(-n3ccnc3)cc21 [YM872, [2,3-dioxo-7-(1H-imidazol-1-yl)-6-nitro-1,2,3,4-tetrahydroquinoxalin-1-yl]acetic acid monohydrate]
effect on AMPA-induced increase in [Ca^2+]i ([3]; 10 μM YM872): selectively abolished | change in cell morphology (CGNH-89 cells [4]; 10 μM YM872 for 2 days): retraction of cytoplasmic processes, enlarged and flattened somata | apoptotic index (CGNH-89 cells [5]): 18.0±2.5% | Ki-67 staining index (CGNH-89 cells [6]): < 0.1% | Ki-67 staining index [7, 9]: decreased | apoptotic index [7, 9]: increased | cell migration ([7]; other 3 cell lines expressing Ca^2+-permeable AMPARs): inhibited the cell migration | apoptotic cells in tumor tissues (histology) [8, 10]: a large number of apoptotic cells | mitotic cells in tumor tissues (histology) [8, 10]: scarcely detected | further effect on tumor expressing GulR2 ([8]; YM872 intraperitoneal, 100 mg/kg): no further inhibitory effects | size of tumor ([8]; YM872 intraperitoneal, 100 mg/kg daily, vs PBS, n=12): significantly reduced | growth of tumor expressing GluR2 (Q) ([8]; YM872 intraperitoneal, 100 mg/kg, n=12): inhibited | proliferation of tumor cells expressing GluR2 (Q) (histology) ([8]; application of YM872): inhibited | inhibition of tumor growth, dose dependence ([8]; daily intraperitoneal 10, 50 and 100 mg/kg for 2 weeks): Dose-dependent inhibition | tumor proliferation in cells expressing GluR2 (histology) ([8]; treatment with YM872): no further inhibition

N[C@@H](CCC(=O)O)C(=O)O [glutamate]
polygonal shape and increased apoptotic cells caused by glutamate-free medium (tumor cells): restored
